Results published in patent US20030134859A1 (SANKYO COMPANY, LIMITED, priority 2000, published 2003).

Each molecule was assayed on Mouse preadipocyte strain 3T3-L1 (assay: Inhibition of differentiation as an indication of acetic acid uptake). Conditions: 0.1 μM test substance, control (0.01% dimethylsulfoxide) = 100%.
Type: cell-based
Outline: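 Confluent 3T3-L1 cells induced to differentiate for 4 days (insulin, IBMX, dexamethasone, 5% FBS) with test compound at 0.1 μM final or 0.01% DMSO, then 2 days in insulin maintenance medium, at 37 °C, 10% CO2. [2-14C]acetic acid uptake over 1 hr counted by scintillation; expressed as % of DMSO control.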

How did the “Rate of Uptake (%) of [2-14C] acetic acid” value turn out when `O=C(Nc1ccc(-c2ccccn2)cc1)c1cc([N+](=O)[O-])ccc1Cl` [Example 8, N-[4-(2-Pyridyl)phenyl]-(2-chloro-5-nitrophenyl)carboxamide] was run?
Its value is 47.2%.

Same assay, conditions: Mus musculus, 3T3-L1, 0.1 μM test substance, control (0.01% dimethylsulfoxide) = 100%, read-out: Rate of Uptake (%) of [2-14C] acetic acid

`Cc1ccc(NC(=O)c2cc([N+](=O)[O-])ccc2Cl)cc1` [Example 1, N-(4-Methylphenyl)-(2-chloro-5-nitrophenyl)carboxamide] was tested. Which activity at 0.1 µM did it give?
Its activity at 0.1 µM is 64%.

`O=C(Nc1ccc(-c2ccccc2)cc1)c1cc([N+](=O)[O-])ccc1Cl` [Example 2, N-(4-Phenylphenyl)-(2-chloro-5-nitrophenyl)carboxamide] was tested. Which activity at 0.1 µM did it give?
The activity at 0.1 µM was 42.7%.

For `Cc1cnc(NC(=O)c2cc([N+](=O)[O-])ccc2Cl)s1` [Example 4, N-(5-Methylthiazol-2-yl)-(2-chloro-5-nitrophenyl)carboxamide], which activity at 0.1 µM is on record?
Its activity at 0.1 µM is 92.5%.

How did the activity at 0.1 µM turn out when `O=C(Nc1cccc(-c2ccccc2)c1)c1cc([N+](=O)[O-])ccc1Cl` [Example 5, N-(3-Phenylphenyl)-(2-chloro-5-nitrophenyl)carboxamide] was run?
Its activity at 0.1 µM is 43.4%.

For `COc1ccc(NC(=O)c2cc([N+](=O)[O-])ccc2Cl)cc1-c1ccccc1` [Example 6, N-(4-Methoxy-3-phenyl)phenyl-(2-chloro-5-nitrophenyl)carboxamide], which activity at 0.1 µM is on record?
Its activity at 0.1 µM is 55.8%.

How did the activity at 0.1 µM turn out when `O=C(Nc1ccccc1-c1ccccc1)c1cc([N+](=O)[O-])ccc1Cl` [Example 7, N-(2-Phenylphenyl)-(2-chloro-5-nitrophenyl)carboxamide] was run?
The activity at 0.1 µM was 65%.

With `Cc1ccc2nc(-c3ccc(NC(=O)c4cc([N+](=O)[O-])ccc4Cl)cc3)sc2c1` [Example 10, N-[4-(6-Methylbenzothiazol-2-yl)phenyl]-(2-chloro-5-nitrophenyl)carboxamide] as the molecule, how does the activity at 0.1 µM read?
The activity at 0.1 µM was 85.3%.

How did the activity at 0.1 µM turn out when `CCCCCc1ccc(NC(=O)c2cc([N+](=O)[O-])ccc2Cl)cc1` [Example 16, N-(4-Pentylphenyl)-(2-chloro-5-nitrophenyl)carboxamide] was run?
The activity at 0.1 µM was 83.7%.

`N#Cc1ccc(NC(=O)c2cc([N+](=O)[O-])ccc2Cl)cc1` [Example 20, N-(4-Cyanophenyl)-(2-chloro-5-nitrophenyl)carboxamide] was tested. Which activity at 0.1 µM did it give?
The activity at 0.1 µM was 65.9%.

How did the activity at 0.1 µM turn out when `CCOC(=O)c1ccc(NC(=O)c2cc([N+](=O)[O-])ccc2Cl)cc1` [Example 26, N-(4-Ethoxycarbonylphenyl)-(2-chloro-5-nitrophenyl)carboxamide] was run?
Its activity at 0.1 µM is 87.5%.

How did the activity at 0.1 µM turn out when `CC(C)(C)c1cc(NC(=O)c2cc([N+](=O)[O-])ccc2Cl)cc(C(C)(C)C)c1O` [Example 29, N-(3,5-Di-t-butyl-4-hydroxyphenyl)-(2-chloro-5-nitrophenyl)carboxamide] was run?
Its activity at 0.1 µM is 68.6%.

`O=C(Nc1cccc(NS(=O)(=O)c2ccccc2)c1)c1cc([N+](=O)[O-])ccc1Cl` [Example 30, N-(3-Benzensulfonylaminophenyl)-(2-chloro-5-nitrophenyl)carboxamide] was tested. Which activity at 0.1 µM did it give?
Its activity at 0.1 µM is 60.1%.

With `O=C(Nc1nc(-c2ccccc2)cs1)c1cc([N+](=O)[O-])ccc1Cl` [Example 35, N-(4-Phenylthiazol-2-yl)-(2-chloro-5-nitrophenyl)carboxamide] as the molecule, how does the activity at 0.1 µM read?
The activity at 0.1 µM was 71.5%.

Which activity at 0.1 µM does the source give for `O=C(Nc1nc(-c2cccnc2)cs1)c1cc([N+](=O)[O-])ccc1Cl` [Example 37, N-[4-(3-Pyridyl)thiazol-2-yl)-(2-chloro-5-nitrophenyl)carboxamide] here?
Its activity at 0.1 µM is 38.6%.

With `O=C(Nc1nc(-c2ccccn2)cs1)c1cc([N+](=O)[O-])ccc1Cl` [Example 38, N-[4-(2-Pyridyl)thiazol-2-yl)-(2-chloro-5-nitrophenyl)carboxamide] as the molecule, how does the activity at 0.1 µM read?
Its activity at 0.1 µM is 82%.

`Cc1ccccc1-c1csc(NC(=O)c2cc([N+](=O)[O-])ccc2Cl)n1` [Example 39, N-[4-(2-Methylphenyl)thiazol-2-yl]-(2-chloro-5-nitrophenyl)carboxamide] was tested. Which activity at 0.1 µM did it give?
Its activity at 0.1 µM is 62.5%.

How did the activity at 0.1 µM turn out when `Cc1cccc(-c2csc(NC(=O)c3cc([N+](=O)[O-])ccc3Cl)n2)c1` [Example 40, N-[4-(3-Methylphenyl)thiazol-2-yl)-(2-chloro-5-nitrophenyl)carboxamide] was run?
The activity at 0.1 µM was 45.3%.

Which activity at 0.1 µM does the source give for `O=C(Nc1nc(-c2cccc3ccccc23)cs1)c1cc([N+](=O)[O-])ccc1Cl` [Example 41, N-[4-(1-Naphthyl)thiazol-2-yl]-(2-chloro-5-nitrophenyl)carboxamide] here?
Its activity at 0.1 µM is 53.8%.

`CCc1ccc(-c2csc(NC(=O)c3cc([N+](=O)[O-])ccc3Cl)n2)cc1` [Example 44, N-[4-(4-Ethylphenyl)thiazol-2-yl]-(2-chloro-5-nitrophenyl)carboxamide] was tested. Which activity at 0.1 µM did it give?
The activity at 0.1 µM was 67.6%.

How did the activity at 0.1 µM turn out when `Cc1ccc(-c2nc(NC(=O)c3cc([N+](=O)[O-])ccc3Cl)sc2C)cc1Cl` [Example 46, N-[4-(3-Chloro-4-methylphenyl)-5-methylthiazol-2-yl]-(2-chloro-5-nitrophenyl)carboxamide] was run?
Its activity at 0.1 µM is 67%.

How did the activity at 0.1 µM turn out when `Cc1nc(NC(=O)c2cc([N+](=O)[O-])ccc2Cl)sc1C` [Example 47] was run?
Its activity at 0.1 µM is 63.1%.

Which activity at 0.1 µM does the source give for `O=C(Nc1cccnc1)c1cc([N+](=O)[O-])ccc1Cl` [Example 50, N-(3-Pyridyl)-(2-chloro-5-nitrophenyl)carboxamide] here?
The activity at 0.1 µM was 61.4%.

With `Cc1cccc(NC(=O)c2cc([N+](=O)[O-])ccc2Cl)n1` [Example 51, N-(6-Methylpyridin-2-yl)-(2-chloro-5-nitrophenyl)carboxamide] as the molecule, how does the activity at 0.1 µM read?
Its activity at 0.1 µM is 57.5%.

How did the activity at 0.1 µM turn out when `Cc1ccc(NC(=O)c2cc([N+](=O)[O-])ccc2Cl)nc1` [Example 52, N-(5-Methylpyridin-2-yl)-(2-chloro-5-nitrophenyl)carboxamide] was run?
The activity at 0.1 µM was 52.3%.

With `O=C(Nc1ccc2c3c(cccc13)CC2)c1cc([N+](=O)[O-])ccc1Cl` [Example 54, N-(Acenaphthen-5-yl)-(2-chloro-5-nitrophenyl)carboxamide] as the molecule, how does the activity at 0.1 µM read?
Its activity at 0.1 µM is 51.3%.

Which activity at 0.1 µM does the source give for `O=C(Nc1cccc2cccnc12)c1cc([N+](=O)[O-])ccc1Cl` [Example 57, N-(8-Quinolinyl)-(2-chloro-5-nitrophenyl)carboxamide] here?
The activity at 0.1 µM was 58.4%.

How did the activity at 0.1 µM turn out when `Cc1ccnc(NC(=O)c2cc([N+](=O)[O-])ccc2Cl)n1` [Example 65, N-(4-Methylpyrimidin-2-yl)-(2-chloro-5-nitrophenyl)carboxamide] was run?
Its activity at 0.1 µM is 63.4%.

Which activity at 0.1 µM does the source give for `COC(=O)c1sccc1NC(=O)c1cc([N+](=O)[O-])ccc1Cl` [Example 66, N-(2-Methoxycarbonylthiophen-3-yl)-(2-chloro-5-nitrophenyl)carboxamide] here?
Its activity at 0.1 µM is 70.7%.

How did the activity at 0.1 µM turn out when `Cc1cc(Cl)nc(NC(=O)c2cc([N+](=O)[O-])ccc2Cl)n1` [Example 78, N-(4-Chloro-6-methylpyrimidin-2-yl)-(2-chloro-5-nitrophenyl)carboxamide] was run?
The activity at 0.1 µM was 68.2%.

For `Cn1c(NC(=O)c2cc([N+](=O)[O-])ccc2Cl)nc2ccccc21` [Example 82, N-(1-Methylbenzimidazol-2-yl)-(2-chloro-5-nitrophenyl)carboxamide], which activity at 0.1 µM is on record?
The activity at 0.1 µM was 83%.

For `O=C(Nc1nncs1)c1cc([N+](=O)[O-])ccc1Cl` [Example 85, N-(1,3,4-Thiadiazol-2-yl)-(2-chloro-5-nitrophenyl)carboxamide], which activity at 0.1 µM is on record?
Its activity at 0.1 µM is 67.1%.

Which activity at 0.1 µM does the source give for `O=C(Nc1cccc2nsnc12)c1cc([N+](=O)[O-])ccc1Cl` [Example 86, N-(2,1,3-Benzothiazol-4-yl)-(2-chloro-5-nitrophenyl)carboxamide] here?
The activity at 0.1 µM was 51.7%.

Which activity at 0.1 µM does the source give for `CC(C)(C)OC(=O)Nc1ccc(-c2ccc(NC(=O)c3cc([N+](=O)[O-])ccc3Cl)cc2)cc1` [Example 87, N-[4-[4-(tert-Butoxycarbonylamino)phenyl]phenyl]-(2-chloro-5-nitrophenyl)carboxamide] here?
The activity at 0.1 µM was 57.1%.

`O=C(Nc1ccc(S(=O)(=O)Nc2nccs2)cc1)c1cc([N+](=O)[O-])ccc1Cl` [Example 96, N-[4-(Thiazol-2-yl)aminosulfonyl]phenyl-(2-chloro-5-nitrophenyl)carboxamide] was tested. Which activity at 0.1 µM did it give?
The activity at 0.1 µM was 98.7%.

With `O=C(Nc1ccc(S(=O)(=O)Nc2ccc(Cl)nn2)cc1)c1cc([N+](=O)[O-])ccc1Cl` [Example 102, N-[4-[(6-Chloropyridazin-3-yl)aminosulfonyl]phenyl]-(2-chloro-5-nitrophenyl)carboxamide] as the molecule, how does the activity at 0.1 µM read?
Its activity at 0.1 µM is 76.8%.

`COc1cnc(NS(=O)(=O)c2ccc(NC(=O)c3cc([N+](=O)[O-])ccc3Cl)cc2)nc1` [Example 105, N-[4-[(5-Methoxypyrimidin-2-yl)aminosulfonyl]phenyl]-(2-chloro-5-nitrophenyl)carboxamide] was tested. Which activity at 0.1 µM did it give?
Its activity at 0.1 µM is 89.4%.

With `N=C(N)NS(=O)(=O)c1ccc(NC(=O)c2cc([N+](=O)[O-])ccc2Cl)cc1` [Example 106, N-[4-(Amidinoaminosulfonyl)phenyl]-(2-chloro-5-nitrophenyl)carboxamide] as the molecule, how does the activity at 0.1 µM read?
Its activity at 0.1 µM is 82%.

Which activity at 0.1 µM does the source give for `O=C(Nc1ccc(S(=O)(=O)Nc2ccnn2-c2ccccc2)cc1)c1cc([N+](=O)[O-])ccc1Cl` [Example 108, N-[4-[(2-Phenyl-(2H)-pyrazol-3-yl)aminosulfonyl]phenyl]-(2-chloro-5-nitrophenyl)carboxamide] here?
The activity at 0.1 µM was 87.7%.

`O=C(Nc1nnc(-c2ccccc2)s1)c1cc([N+](=O)[O-])ccc1Cl` [Example 110, N-(5-Phenyl-[1,3,4]thiadiazol-2-yl)-(2-chloro-5—nitrophenyl)carboxamide] was tested. Which activity at 0.1 µM did it give?
Its activity at 0.1 µM is 84.6%.

How did the activity at 0.1 µM turn out when `O=C(Nc1nc(-c2ccc(F)c(F)c2)cs1)c1cc([N+](=O)[O-])ccc1Cl` [Example 111, N-[4-(3,4-Difluorophenyl)thiazol-2-yl]-(2-chloro-5-nitrophenyl)carboxamide] was run?
The activity at 0.1 µM was 61.2%.

With `Cc1ccc(S(=O)(=O)Nc2ccc(NC(=O)c3cc([N+](=O)[O-])ccc3Cl)cc2)cc1` [Example 116, N-[4-(4-Toluenesulfonylamino)phenyl]-(2-chloro-5-nitrophenyl)carboxamide] as the molecule, how does the activity at 0.1 µM read?
Its activity at 0.1 µM is 95.1%.

With `CC(=O)Nc1ccc(NC(=O)c2cc([N+](=O)[O-])ccc2Cl)cc1` [Example 117, N-(4-Acetylaminophenyl)-(2-chloro-5-nitrophenyl)carboxamide] as the molecule, how does the activity at 0.1 µM read?
The activity at 0.1 µM was 87%.

Which activity at 0.1 µM does the source give for `O=C(Nc1ccc(NC(=O)c2cc([N+](=O)[O-])ccc2Cl)cc1)c1ccccc1` [Example 119, N-(4-Benzoylaminophenyl)-(2-chloro-5-nitrophenyl)carboxamide] here?
The activity at 0.1 µM was 65.7%.
